Laboratory results from US6498158B1, “Il-5 inhibiting 6-azauracil derivatives” (Janssen Pharmaceutica N.V., priority 1998, dated 2002).

Columns and labels:
[1] = system: IL-5 production; experiment: In vitro inhibition of IL-5 production in human blood; format: cell-based; conditions: test dose of 1×10^−6 M, phytohemagglutinin-stimulated human whole blood, ELISA; for % inh. (percentage inhibition of IL-5 production): 48 hours; for inhibition at 1 µM: Homo sapiens, 48 h, read-out: % inh. (percentage inhibition of IL-5 production)
Description: In Vitro Inhibition of IL-5 Production in Human Blood
Human Whole Blood Stimulation
Peripheral blood from healthy male donors was drawn into heparinized syringes (12.5 U heparin/ml). Blood samples were three-fold diluted in RMPI 1640 medium (Life Technologies, Belgium) supplemented with 2 mM L-glutamine, 100 U/ml penicillin and […] streptomycin, and […] fractions were distributed in 24-well multidisc plates. Blood samples were preincubated (60 minutes at 37° C.) in a humidified 6% CO2-atmosphere with 100 ml of drug solvent (final concentration 0.02% dimethylsulfoxide in RPMI 1640) or with 100 ml of an appropriate dose of test compound before being stimulated by the addition of […] of phytohemagglutinin HA17 (Murex, UK) at a final concentration of […]. After 48 hours, cell-free supernatant fluids were collected by centrifugation and stored at −70° C. until tested for the presence of IL-5.
IL-5 measurements were conducted as described in Van Wauwe et al. (1996, Inflamm Res, 45, 357-363) on page 358 using ELISA.
Table 3 lists the percentage inhibition of IL-5 production (column “% inh”) at a test dose of 1×10^−6 M for the compounds of the present invention.

| Structure (SMILES) | % inh. (percentage inhibition of IL-5 production) [1] [%] | melting point [°C] | inhibition at 1 µM [1] [%] |
| --- | --- | --- | --- |
| Cc1sc(C2(c3c(Cl)cc(-n4ncc(=O)[nH]c4=O)cc3Cl)CCc3ccccc32)nc1-c1ccccc1 (centres unmarked) [Compound 5] | 88 | 122 |  |
| Cc1sc(C2(c3c(Cl)cc(-n4ncc(=O)[nH]c4=O)cc3Cl)CCc3ccccc32)nc1-c1ccccc1 (centres unmarked) [Compound 4] |  | 237 | 89.3 |
| Cc1sc(C2(c3c(Cl)cc(-n4ncc(=O)[nH]c4=O)cc3Cl)CCc3ccccc32)nc1-c1ccccc1 (centres unmarked) [Compound 6] | 91 |  |  |
| N#CC1(c2c(Cl)cc(-n3ncc(=O)[nH]c3=O)cc2Cl)CCc2ccccc21 (centres unmarked) [Compound 1] |  |  | 70.5 |
| CCOC(=O)C1(c2c(Cl)cc(-n3ncc(=O)[nH]c3=O)cc2Cl)CCc2ccccc21 (centres unmarked) [Compound 2] |  | 88 | 63 |
